# Results from US20250295679A1, “Compositions and Dosage Forms for Treatment of HPV Infection and HPV-Induced Neoplasia” (priority 2022, published 2025).
# Where two headings read alike, the source gives them in different places.
# How the values were obtained:
# [1] = Solubility in buffers, water and simulated vaginal fluid at 37° C.; details: 37° C.
# Protocol: About 4 mg of Compound I Pattern 1 was added into 2 mL of buffer solution.
# (§1) Solubility was tested in five media, pH 3.0 citrate buffer, pH 4.5 acetate buffer, pH 6.8 phosphate buffer, water, simulated vaginal fluid (pH 4.2) at 37° C. for 0.5 h and 2 h.
# The salt amount used is equivalent to 10 mg anhydrous free base. […] The obtained clear solutions were analyzed by pH meter for pH, and solubility was determined by observation.
# as §1
# [2] = Hygroscopicity by DVS at 25° C.; assay type: physicochemical; details: for XRPD after DVS test: after humidity cycle 40-0-95-0-40% RH, 25° C.
# Protocol: Hygroscopicity was investigated by DVS at 25° C., using the following method: • Method: 40-0-95-0-40% RH, dm/dt=0.002
# [3] = Bulk (accelerated) stability, one week, HPLC and XRPD; details: initial chemical purity before storage
# Protocol: Bulk stability: Accelerated stability experiments were conducted at 25° C./92% RH and 40° C./75% RH in an open container, 60° C. in a tight container for one week.
# Samples were characterized by XRPD and HPLC and inspected for color change.
# Accelerated stability experiments were conducted at 25° C./92% RH in an open container, at 40° C./75% RH in an open container, and at 60° C. in a tight container for one week.
# [4] = Tablet stability study (storage, purity by HPLC); assay type: physicochemical; details: for Degradation of tablets: within one month at 40° C. and 75% RH
# Protocol: Tablets were prepared using the excipients and excipient ratios shown in the first column of the following tables. The tablets were then stored under the conditions indicated and periodically sampled and tested for purity by HPLC.
# [5] = Behavior under compression, grinding and granulation simulation (XRPD); assay type: physicochemical
# Protocol: About 10 mg of Compound I monofumarate Pattern 1 (Example 7) was compressed for 5 minutes at 10 MPa with a hydraulic press. XRPD characterization was performed to investigate the polymorphic behavior under compression.
# About 10 mg of Compound I monofumarate Pattern 1 (Example 7) was ground manually with a mortar and pestle for 5 min. Form transformation and degree of crystallinity was evaluated by XRPD.
# Water or ethanol was added drop wise to about 10 mg of Compound I monofumarate Pattern 1 (Example 7) until solids were wetted sufficiently. The samples were ground manually with a mortar and pestle for 3 minutes. Samples are dried under ambient condition for 10 min.
# Form transformation and degree of crystallinity were evaluated by XRPD.
# HEK293 cells = assay: In vitro cytotoxicity, XTT, five days
# Protocol: (§2) Three compounds (Compound I, Compound II and Compound III) were solubilized at 40 mM in DMSO and stored at −20° C. The test compounds were evaluated using a high test concentration of 50 μM. Serial half-logarithmic dilutions were performed for the in vitro cytotoxicity assays.
# (§3) Cells listed in Table 70 were enumerated by Trypan Blue Dye exclusion method and seeded in the interior wells of a 96 well flat bottom microtiter plate at 100 μL/well. Proliferating cells were incubated overnight at 37° C./5% CO2 to allow the cells to adhere to the plates at approximately 70% confluency. Tissue culture medium was removed and replaced with 100 μL/well of fresh medium. One-hundred microliters (100 μL) of each compound at six concentrations was transferred to the 96-well plate containing the cells in triplicate. Table 70 lists the cell line, type of cell, source of cell stock, base tissue culture medium supplemented with 10% fetal bovine serum, 2 mM L-glutamine, 100 U/mL penicillin and 100 μg/mL streptomycin, and microtiter plate seeding density.
# (§4) Following incubation at 37° C. in a 5% CO2 incubator for five days, the test plates were stained with the tetrazolium dye XTT (2,3-bis(2-methoxy-4-nitro-5-sulfopheny1)-5-[(phenylamino)carbonyl]-2H-tetrazolium hydroxide). XTT-tetrazolium was metabolized by the mitochondrial enzymes of metabolically active cells to a soluble formazan product. XTT solution was prepared daily as a stock of 1 mg/ml in RPM11640. Phenazine methosulfate (PMS) solution was prepared at 0.15 mg/ml in PBS and stored in the dark at −20° C. XTT/PMS stock was prepared immediately before use by adding 40 μL of PMS per ml of XTT solution. Fifty microliters of XTT/PMS were added to each well of the plate and the plate was reincubated for 4 hours at 37° C. Plates were sealed with adhesive plate sealers and shaken gently or inverted several times to mix the soluble formazan product and the plate was read spectrophotometrically at 450/650 nm with a Molecular Devices Vmax plate reader.
# (§5) Microsoft Excel 2010 was used to analyze and graph the raw data. […] Raw data for cytotoxicity with a graphic representation of the data are provided in a printout summarizing the compound effect on cell viability.
# (§6) Compounds I, II, and III were evaluated for cytotoxicity to proliferating Hs27, HeLa, C33A and HEK293 cells by measuring cell viability using XTI tetrazolium dye following five days in culture (Table 71).
# Hs27 cells = test system: Hs27 cells
# Protocol: as §2, §3, §4, §5, §6
# HeLa cells = test system: HeLa cells
# Protocol: as §2, §3, §4, §5, §6
# C33A cells = assay: In vitro cytotoxicity, XTT, five days; details: read-out: C33A CC50, proliferating C33A cells
# Protocol: as §2, §3, §4, §5, §6
# [6] = solution in pH 3.0 100 mM citrate buffer
# [7] = solution in pH 4.5 50 mM acetate buffer
# [8] = solution in pH 6.8 50 mM phosphate buffer
# [9] = solution in simulated vaginal fluid (pH adjusted with 0.2N NaOH)
# [10] = ground manually with mortar and pestle for 5 min
structure (smiles),measurement,setting,value
"CCOC(=O)[C@H](C)NP(=O)(COCCn1cnc2c(OC)nc(N)nc21)OCc1ccccc1 (stereo partly drawn) [Compound I, ethyl(((2-(2-amino-6-methoxy-9H-purin-9-yl)ethoxy)methyl)(benzyloxy)-phosphoryl)-L-alaninate]",pH at 2 hrs,[1]; [6],(2.98)
same,pH at 2 hrs,[1]; [7],(4.50)
same,pH at 2 hrs,[1]; [8],(6.81)
same,pH at 2 hrs,[1]; [9],(5.53)
same,pH at 2 hrs,[1]; solution in water,(7.55)
same,Desorption (%) Cycle 1,"[2]; 0% RH, DVS 25° C.",0.00%
same,Desorption (%) Cycle 2,"[2]; 0% RH, DVS 25° C.",0.19%
same,Sorption (%) Cycle 1,"[2]; 0% RH, DVS 25° C.",0.00%
same,Sorption (%) Cycle 2,"[2]; 0% RH, DVS 25° C.",0.19%
same,Desorption (%) Cycle 1,"[2]; 10% RH, DVS 25° C.",0.11%
same,Desorption (%) Cycle 2,"[2]; 10% RH, DVS 25° C.",0.37%
same,Sorption (%) Cycle 1,"[2]; 10% RH, DVS 25° C.",0.08%
same,Sorption (%) Cycle 2,"[2]; 10% RH, DVS 25° C.",0.22%
same,Desorption (%) Cycle 1,"[2]; 20% RH, DVS 25° C.",0.23%
same,Desorption (%) Cycle 2,"[2]; 20% RH, DVS 25° C.",0.57%
same,Sorption (%) Cycle 1,"[2]; 20% RH, DVS 25° C.",0.17%
same,Sorption (%) Cycle 2,"[2]; 20% RH, DVS 25° C.",0.30%
same,Desorption (%) Cycle 1,"[2]; 30% RH, DVS 25° C.",0.47%
same,Desorption (%) Cycle 2,"[2]; 30% RH, DVS 25° C.",0.83%
same,Sorption (%) Cycle 1,"[2]; 30% RH, DVS 25° C.",0.28%
same,Sorption (%) Cycle 2,"[2]; 30% RH, DVS 25° C.",0.44%
same,Desorption (%) Cycle 1,"[2]; 40% RH, DVS 25° C.",0.60%
same,Desorption (%) Cycle 2,"[2]; 40% RH, DVS 25° C.",1.09%
same,Sorption (%) Cycle 1,"[2]; 40% RH, DVS 25° C.",0.41%
same,Sorption (%) Cycle 2,"[2]; 40% RH, DVS 25° C.",0.62%
same,Desorption (%) Cycle 2,"[2]; 50% RH, DVS 25° C.",1.48%
same,Sorption (%) Cycle 1,"[2]; 50% RH, DVS 25° C.",0.61%
same,Desorption (%) Cycle 2,"[2]; 60% RH, DVS 25° C.",1.96%
same,Sorption (%) Cycle 1,"[2]; 60% RH, DVS 25° C.",0.85%
same,Desorption (%) Cycle 2,"[2]; 70% RH, DVS 25° C.",2.78%
same,Sorption (%) Cycle 1,"[2]; 70% RH, DVS 25° C.",1.14%
same,Desorption (%) Cycle 2,"[2]; 80% RH, DVS 25° C.",4.33%
same,Sorption (%) Cycle 1,"[2]; 80% RH, DVS 25° C.",1.64%
same,Desorption (%) Cycle 2,"[2]; 90% RH, DVS 25° C.",9.10%
same,Sorption (%) Cycle 1,"[2]; 90% RH, DVS 25° C.",4.27%
same,Desorption (%) Cycle 2,"[2]; 95% RH, DVS 25° C.",14.32%
same,Sorption (%) Cycle 1,"[2]; 95% RH, DVS 25° C.",14.32%
same,XRPD after DVS test,[2],"No form change,"
same,"HPLC purity, Initial",[3]; listed as Compound I free base Pattern 1,98.7%
same,Degradation of tablets,[4],substantially degrade
"CCOC(=O)[C@H](C)NP(=O)(COCCn1cnc2c(OC)nc(N)nc21)OCc1ccccc1.O=C(O)/C=C/C(=O)O (mixture of isomers) [Compound I monofumarate, (±)-(2S)-ethyl-2-((((2-(2-amino-6-methoxy-9H-purin-9-yl)-ethoxy)-methyl)-(benzyloxy)-phosphoryl)-amino)-propionate monofumarate]",pH at 2 hrs,[1]; [6],(3.05)
same,pH at 2 hrs,[1]; [7],(4.36)
same,pH at 2 hrs,[1]; [8],(6.49)
same,pH at 2 hrs,[1]; [9],(5.39)
same,pH at 2 hrs,[1]; solution in water,(3.11)
same,Desorption (%) Cycle 1,"[2]; 0% RH, DVS 25° C.",0.49%
same,Desorption (%) Cycle 2,"[2]; 0% RH, DVS 25° C.",0.09%
same,Sorption (%) Cycle 1,"[2]; 0% RH, DVS 25° C.",0.49%
same,Sorption (%) Cycle 2,"[2]; 0% RH, DVS 25° C.",0.09%
same,Desorption (%) Cycle 1,"[2]; 10% RH, DVS 25° C.",0.62%
same,Desorption (%) Cycle 2,"[2]; 10% RH, DVS 25° C.",0.15%
same,Sorption (%) Cycle 1,"[2]; 10% RH, DVS 25° C.",0.56%
same,Sorption (%) Cycle 2,"[2]; 10% RH, DVS 25° C.",0.18%
same,Desorption (%) Cycle 1,"[2]; 20% RH, DVS 25° C.",0.71%
same,Desorption (%) Cycle 2,"[2]; 20% RH, DVS 25° C.",0.35%
same,Sorption (%) Cycle 1,"[2]; 20% RH, DVS 25° C.",0.66%
same,Sorption (%) Cycle 2,"[2]; 20% RH, DVS 25° C.",0.27%
same,Desorption (%) Cycle 1,"[2]; 30% RH, DVS 25° C.",0.81%
same,Desorption (%) Cycle 2,"[2]; 30% RH, DVS 25° C.",0.47%
same,Sorption (%) Cycle 1,"[2]; 30% RH, DVS 25° C.",0.76%
same,Sorption (%) Cycle 2,"[2]; 30% RH, DVS 25° C.",0.37%
same,Desorption (%) Cycle 1,"[2]; 40% RH, DVS 25° C.",0.93%
same,Desorption (%) Cycle 2,"[2]; 40% RH, DVS 25° C.",0.56%
same,Sorption (%) Cycle 1,"[2]; 40% RH, DVS 25° C.",0.86%
same,Sorption (%) Cycle 2,"[2]; 40% RH, DVS 25° C.",0.47%
same,Desorption (%) Cycle 2,"[2]; 50% RH, DVS 25° C.",0.67%
same,Sorption (%) Cycle 1,"[2]; 50% RH, DVS 25° C.",0.71%
same,Desorption (%) Cycle 2,"[2]; 60% RH, DVS 25° C.",0.85%
same,Sorption (%) Cycle 1,"[2]; 60% RH, DVS 25° C.",0.85%
same,Desorption (%) Cycle 2,"[2]; 70% RH, DVS 25° C.",1.04%
same,Sorption (%) Cycle 1,"[2]; 70% RH, DVS 25° C.",1.02%
same,Desorption (%) Cycle 2,"[2]; 80% RH, DVS 25° C.",1.30%
same,Sorption (%) Cycle 1,"[2]; 80% RH, DVS 25° C.",1.27%
same,Desorption (%) Cycle 2,"[2]; 90% RH, DVS 25° C.",1.84%
same,Sorption (%) Cycle 1,"[2]; 90% RH, DVS 25° C.",1.78%
same,Desorption (%) Cycle 2,"[2]; 95% RH, DVS 25° C.",2.89%
same,Sorption (%) Cycle 1,"[2]; 95% RH, DVS 25° C.",2.89%
same,XRPD after DVS test,[2],"No form change,"
same,Water uptake,"[2]; up to / in 95% RH, DVS 25° C.",about 2.9%
same,Form change by XRPD under compression,[5]; compressed 5 minutes at 10 MPa,no form change was observed
same,Crystallinity by XRPD after grinding,[5]; [10],crystallinity slightly decreased
same,Form change by XRPD after grinding,[5]; [10],no form change was observed
same,Form change by XRPD after granulation simulation,"[5]; wetted with water or ethanol, ground 3 minutes, dried","neither in ethanol, nor in water form change was observed"
same,"HPLC purity, Initial","[3]; listed as Compound I monofumarate Pattern 1, monofumarate",98.6%
same,Degradation of tablets compared with tablets produced from Compound I,"[4]; range of different formulations, purity by HPLC",degraded less
same,Degradation of tablets,[4],far less degradation
CCOC(=O)C(C)NP(=O)(COCCn1cnc2c(OC)nc(N)nc21)OCc1ccccc1 (mixture of isomers) [AB12280],CC50,"HEK293 cells; read-out: HEK293 CC50, proliferating HEK293 cells, XTT, five days",< 0.16 µM
"CCOC(=O)[C@H](C)N[P@](=O)(COCCn1cnc2c(OC)nc(N)nc21)OCc1ccccc1 (single isomer, unassigned; isomer 1) [AB12280 Isomer 1]",CC50,Hs27 cells,23.2 µM
same,CC50,HeLa cells,15.1 µM
same,CC50,C33A cells,0.2 µM
same,CC50,HEK293 cells,< 0.16 µM
"CCOC(=O)[C@H](C)N[P@@](=O)(COCCn1cnc2c(OC)nc(N)nc21)OCc1ccccc1 (single isomer, unassigned; isomer 2) [AB12280 Isomer 2]",CC50,Hs27 cells,7.62 µM
same,CC50,HeLa cells,16.9 µM
same,CC50,C33A cells,< 0.16 µM
same,CC50,HEK293 cells,< 0.16 µM
